The structures appear in SMILES notation. Entries after “also recorded” stand apart in the source; their conditions may differ. Structures can show the parent of a compound that is named as a salt. Where two headings read alike, the source gives them in different places.

The conditions of series [1]: cited from earlier work; for DILI Cat (DILI category): human, in vivo; for DILI Sev (DILI severity score from the LTKB of the FDA): negative number: withdrawn from the market, higher positive numbers, greater DILI concern.
Series [2] deals with iCCs (confluent monolayer cultures of iHeps). The note with it: human; for Toxicity call in iCCs: 6 days.
Series [3] deals with iMPCCs (iHep micropatterned co-cultures). Nature of the series: Drug toxicity screening in iMPCCs (albumin, ATP, urea; binary decision and TC50). Particulars: interpolated concentration at which activity decreases by 50% of DMSO-only controls.
For series [4] the test system is unchanged. Particulars: human.
In series [5] the test system is CYP2C9 and CYP3A4. Nature of the series: Drug-mediated CYP enzyme induction in iCCs. Particulars: rifampicin 25 μM, phenobarbital 1 mM, 4 days.
The subject of series [6] is CYP450 (3A4, 2C9).
For series [7], the system named is CYP2C9 and CYP3A4. Particulars: human.
Series [8] deals with primary hepatocytes (HUM4011, Triangle Research Labs). Particulars: human.
In series [9] the test system is CYP1A2. Description: CYP1A2 induction in iMPCCs (7-ethoxyresorufin O-dealkylation). Format: cell-based, human.
In series [10] the test system is primary hepatocyte sandwich culture. Particulars: human, cited from earlier work.
Series [11] has as its system primary human hepatocytes in MPCCs. The note with it: cited from earlier work.
Series [12] relates to iMPCCs. Description: Drug-drug interaction: acetaminophen with BSO in iMPCCs. In kind it is cell-based, human. Particulars: APAP 25·Cmax and 50·Cmax, BSO 200 μM.
Series [13] relates to iMPCCs. Nature of the series: 8-day drug toxicity study in iMPCCs (albumin and urea). Particulars: 8 days, multiple doses.
For series [14] the following is noted: total human plasma concentration; cited from earlier work.
Wherever DILI Cat (DILI category) is given: key: P1: DILI type 1, dose dependent (toxic); P2: DILI type 2, idiosyncratic (toxic); N1: not known to cause liver injury (nontoxic); N2: sporadic cases (<10) of liver injury reported but generally considered safe drug to use by doctors (nontoxic); O1: hepatotoxic in animals untested in humans (toxic); O2: elevated liver enzymes observed in humans but does not lead to frank liver toxicity (nontoxic).

For `C[C@H](CS)C(=O)N1CCC[C@H]1C(=O)O` [Captopril], in series [1], the “DILI Cat (DILI category)” value was “P2” and the “DILI Sev (DILI severity score from the LTKB of the FDA)” value (“DILI Sev” below) is 7.

As for `NNC(=O)c1ccncc1` [Isoniazid], the “DILI Cat (DILI category)” value in series [1] is “P1”. The “Toxicity call in iCCs” value in [2] was “non-toxic”. Further, the “TC50 in iMPCCs, Albumin” value in [3] came out at 6681.1 µM. For the same compound, the “Toxicity call in iMPCCs / iHeps” value in series [4] (6 days) is given as “toxic”.

`CNCCC=C1c2ccccc2CCc2ccccc21` [Nortriptyline HCl]: in series [1], the “DILI Cat (DILI category)” value is on record as “P2”.

With `O=C(O)c1cn(C2CC2)c2cc(N3CCNCC3)c(F)cc2c1=O` [Ciprofloxacin HCl], the “TC50 in iMPCCs, ATP” value in series [4] (6 days) is 804.2 µM.

With `CCCCCCCCCCCCCCCC(=O)OC[C@@H](NC(=O)C(Cl)Cl)[C@H](O)c1ccc([N+](=O)[O-])cc1` [Chloramphenicol palmitate], in series [1], the “DILI Cat (DILI category)” value is “P2”.

Turning to `CCC1(c2ccccc2)C(=O)NC(=O)NC1=O` [phenobarbital], the “CYP induction response (functional activity) in iCCs” value in [5] was “induced functional activity; also recorded: severely blunted”. In series [6], the “Induction of CYP450 (3A4, 2C9) transcripts and functions in PHH-MPCCs” value is recorded as “induction”. Besides, in series [7], the “Fold induction of CYP450 transcripts in iMPCCs relative to PHH-MPCCs” value is 60-130% and the “Induction in CYP450 functions in iMPCCs relative to PHH-MPCCs” value is on record as 44-79%.

As to `CC(=O)Nc1nnc(S(N)(=O)=O)s1` [Acetazolamide], the “Toxicity call in another donor of primary hepatocytes” value (from here on “Toxicity call in another donor”) in [8] was “false negative”.

`CCc1oc2ccccc2c1C(=O)c1cc(Br)c(O)c(Br)c1` [Benzbromarone]: the “DILI Cat (DILI category)” value in [1] is given as “P1”.

On to `O=C(O)/C=C\C(=O)O` [Maleic acid], for which the “Toxicity call in another donor” value in series [8] is given as “borderline positive”.

Turning to `CN1C(C(=O)Nc2ccccn2)=C(O)c2ccccc2S1(=O)=O` [Piroxicam], in [1], the “DILI Cat (DILI category)” value is on record as “P2”. The “Toxicity call in iMPCCs / iHeps” value in series [4] (6 days) was “toxic”.

Take `C=C[C@H]1C[N@@]2CC[C@H]1C[C@H]2[C@H](O)c1ccnc2ccc(OC)cc12` [Quinine]: the “DILI Cat (DILI category)” value in series [1] is on record as “P2”. The “TC50 in iMPCCs, ATP” value in series [4] (6 days) stood at 182.2 µM.

Regarding `COc1ccc2[nH]c([S+]([O-])Cc3ncc(C)c(OC)c3C)nc2c1` (centres unmarked) [omeprazole], the “CYP1A2 fold induction in iMPCCs as % of values in PHH-MPCCs” value in series [9] was around 70%.

`CCN(CC)C(=O)/C(C#N)=C/c1cc(O)c(O)c([N+](=O)[O-])c1` [entacapone]: the “Albumin secretions, time- and dose-dependent toxicity” value in series [4] was “time- and dose-dependent toxicities”.

As to `C[C@@H]1C[C@H]2[C@@H]3CCC4=CC(=O)C=C[C@]4(C)[C@@]3(F)[C@@H](O)C[C@]2(C)[C@@]1(O)C(=O)CO` [Dexamethasone], the “DILI Cat (DILI category)” value in series [1] is given as “N1”. The “Model predictions iMPCC (binary decision of toxicity)” value in [4] (6 days) is “−”.

For the compound `NC(=O)c1cnccn1` [Pyrazinamide], the “DILI Cat (DILI category)” value in series [1] is on record as “P2”. The “Toxicity call in iCCs” value in [2] was “non-toxic”. The “Toxicity call in iMPCCs / iHeps” value in series [4] (6 days) is on record as “toxic”.

Take `O=P1(N(CCCl)CCCl)NCCCO1` (centres unmarked) [Cyclophosphamide]: the “Model predictions Sand (binary decision in sandwich cultures)” value (“Model predictions Sand” for short) in [10] (primary hepatocyte sandwich culture) was “−”.

Turning to `Nc1ccc(S(=O)(=O)c2ccc(N)cc2)cc1` [Dapsone], in series [1], the “DILI Cat (DILI category)” value is listed as “P1”. For the same compound, the “Toxicity call in another donor” value in series [8] is reported as “false negative”.

As for `Cc1cccc(Nc2ccccc2C(=O)O)c1C` [Mefenamic acid], in series [1], the “DILI Cat (DILI category)” value is “P2”. Moreover, in series [4] (6 days), the “TC50 in iMPCCs, ATP” value was found to be 2551.9 µM and the “TC50 in iMPCCs, Urea” value came out at 572.2 µM.

For `C[C@]12CC[C@@H]3c4ccc(O)cc4CC[C@H]3[C@@H]1CCC2=O` [Estrone], the “DILI Cat (DILI category)” value in series [1] is “P2”.

Turning to `Cc1c(C)c2c(c(C)c1O)CCC(C)(COc1ccc(CC3SC(=O)NC3=O)cc1)O2` (centres unmarked) [Troglitazone], the “DILI Cat (DILI category)” value in [1] is “P1”.

Take `Cc1ccc(C(=O)c2cc(O)c(O)c([N+](=O)[O-])c2)cc1` [tolcapone]: the “Albumin secretions, time- and dose-dependent toxicity” value in [4] is “time- and dose-dependent toxicities”.

Consider `CNCCc1ccccn1.Cl.Cl` [Betahistine 2HCl], for which the “DILI Cat (DILI category)” value in series [1] is on record as “P2”.

In the case of `CCCCC1C(=O)N(c2ccccc2)N(c2ccccc2)C1=O` [Phenylbutazone], the “DILI Cat (DILI category)” value in series [1] was “P2”. The “TC50 in MPCCs, ATP” value in series [11] is 7586.7 µM.

As to `CCOc1ccc(NC(C)=O)cc1` [Phenacetin], in series [2], the “Toxicity call in iCCs” value is “not identified as toxic”.

With `O=c1n(CCCN2CCN(c3cccc(Cl)c3)CC2)nc2ccccn12` [Trazodone HCl], the “DILI Cat (DILI category)” value in series [1] is listed as “P2”. The “TC50 in iMPCCs, ATP” value in series [4] (6 days) is 351.5 µM.

In the case of `O=C1CC2(CCCC2)CC(=O)N1CCCCN1CCN(c2ncccn2)CC1` [Buspirone], in series [1], the “DILI Cat (DILI category)” value is reported as “N1”.

For the compound `CC(=O)CC(c1ccccc1)c1c(O)c2ccccc2oc1=O` (centres unmarked) [Warfarin], in series [2], the “Model predictions ICC (binary decision of toxicity)” value is “−”. For the same compound, the “Model predictions Sand” value in series [10] is on record as “−”.

Take `CN(C)CCCN1c2ccccc2CCc2ccccc21` [Imipramine HCl]: in series [1], the “DILI Cat (DILI category)” value is “P2”.

`CC(=O)Oc1ccccc1C(=O)O` [Aspirin]: in series [1], the “DILI Cat (DILI category)” value is on record as “O2”. The “Model predictions iMPCC (binary decision of toxicity)” value in series [4] (6 days) is “−”.

Regarding `CN(CCOc1ccc(CC2SC(=O)NC2=O)cc1)c1ccccn1` (centres unmarked) [Rosiglitazone], the “DILI Cat (DILI category)” value in series [1] was “N2”.

Regarding `CC(=O)Nc1ccc(O)cc1` [Acetaminophen], the “DILI Cat (DILI category)” value in series [1] is reported as “P2”. Besides, the “Toxicity of APAP when combined with BSO” value in series [12] is on record as “substantial increase in toxicity”.

Consider `CCN(CC)CCOc1ccc(C(=C(Cl)c2ccccc2)c2ccccc2)cc1` [Clomiphene citrate], for which the “DILI Cat (DILI category)” value in series [1] was “P2”.

`CC(=O)[C@H]1CC[C@H]2[C@@H]3CCC4=CC(=O)CC[C@]4(C)[C@H]3CC[C@]12C` [Progesterone]: the “DILI Cat (DILI category)” value in series [1] is recorded as “P2”.

`COc1ccc2c(c1)[C@]13CCCC[C@@H]1[C@H](C2)N(C)CC3` [Dextromethorphan HBr]: the “Albumin and urea production after exposure” value in series [13] is listed as “minimally affected”. Also, the “Model predictions ICC (binary decision of toxicity)” value in series [2] is recorded as “−”. Also, the “Model predictions Sand” value in series [10] is “−”.

With `O=C(O)Cc1ccccc1Nc1c(Cl)cccc1Cl` [Diclofenac], in [1], the “DILI Cat (DILI category)” value is reported as “P2” and the “DILI Sev” value is on record as 7. For the same compound, in series [11], the “TC50 in MPCCs, Urea” value was 208.2 µM.

On to `C#CC1(O)CC[C@H]2[C@@H]3CCC4=CC(=O)CC[C@@H]4[C@H]3CC[C@@]21CC` (mixture of isomers) [Norgestrel], for which the “DILI Cat (DILI category)” value in series [1] is on record as “P2”.

For `C#C[C@]1(O)CC[C@H]2[C@@H]3CCC4=Cc5oncc5C[C@]4(C)[C@H]3CC[C@@]21C` [Danazol], in series [1], the “DILI Cat (DILI category)” value is reported as “P1” and the “DILI Sev” value was 8.

Turning to `CC(C(=O)O)c1ccc(-c2ccccc2)c(F)c1` (centres unmarked) [Flurbiprofen], the “DILI Cat (DILI category)” value in [1] is listed as “P2”. The “Comparison of urea TC50 values, iHeps vs primary hepatocytes” value in series [4] (6 days) was “higher TC50 in iHeps”.

For the compound `CC(=O)O[C@]1(C(C)=O)CC[C@H]2[C@@H]3C=C(Cl)C4=CC(=O)[C@@H]5C[C@@H]5[C@]4(C)[C@H]3CC[C@@]21C` [Cyproterone acetate], the “DILI Cat (DILI category)” value in [1] is given as “O1”. Moreover, in [2], the “Toxicity call in iCCs” value is “non-toxic”. Further, in [4] (6 days), the “Toxicity call in iMPCCs / iHeps” value is listed as “toxic”.

One may read the Cmax as the maximum level reached in the sampled fluid or tissue. Regarding `CNCCC(Oc1ccc(C(F)(F)F)cc1)c1ccccc1` (centres unmarked) [Fluoxetine], in series [1], the “DILI Cat (DILI category)” value is on record as “N2” and the “DILI Sev” value is 3. Besides, the Cmax in series [14] was 49 nM.

As to `NC(=O)NO` [Hydroxyurea], in series [4] (6 days), the “TC50 in iMPCCs, ATP” value is 49358.3 µM.

Source of the values: US10717966B2, “Stem cell-derived hepatocytes in co-culture and uses thereof” (Colorado State University Research Foundation, priority 2014, dated 2020).
